Converted amounts (≈) assume the structure as drawn. “And” between values parts separate entries of the source, which are not always exact repeats. Equal entries are not always repeated.
Key:
Assay in all cases: ≥ marks a high value that may be exact or a test limit, other limits are often not marked, values filed in µg/mL are converted to µM
[1] = test system: Vibrio harveyi BCRC 13812
[2] = test system: Micrococcus luteus BCRC 11034
Vibrio alginolyticus = test system: Vibrio alginolyticus
Vibrio vulnificus 204 = test system: Vibrio vulnificus 204
[3] = test system: Staphylococcus sp. BCRC 10451
Streptococcus agalactiae = test system: Streptococcus agalactiae
[4] = test system: Streptococcus pneumoniae BCRC 10794
[5] = test system: Staphylococcus aureus BCRC 10780
[6] = test system: Pseudomonas aeruginosa ATCC 27853
[7] = test system: Escherichia coli ATCC 35218
[8] = test system: Staphylococcus aureus ATCC 25325
[9] = test system: Enterococcus faecalis ATCC 29212
[10] = test system: Pseudomonas syringae pv. syringae DSM 10604
[11] = test system: Xanthomonas vesicatoria DSM 50861
[12] = test system: Pseudomonas syringae pv. tomato DC3000
[13] = test system: Clavibacter michiganensis subsp. michiganensis DSM 46294
[14] = test system: Pseudomonas corrugata DSM 7228
[15] = test system: Pectobacterium carotovorum subsp. carotovorum DSM 30168
[16] = test system: Pseudomonas aeruginosa PAO1
[17] = test system: Pseudomonas aeruginosa 910
[18] = test system: Pseudomonas aeruginosa 253
Staphylococcus aureus = test system: Staphylococcus aureus
[19] = test system: Staphylococcus aureus ATCC 29213
Staphylococcus aureus MR = test system: Staphylococcus aureus MR
[20] = test system: Escherichia coli ATCC 25922
[21] = test system: Staphylococcus epidermidis PIA 8400
[22] = test system: Pseudomonas aeruginosa 919
[23] = test system: Neisseria gonorrhoeae F62
[24] = test system: Neisseria gonorrhoeae FA19
[25] = test system: Cryptococcus neoformans CN2
Candida glabrata 65C = test system: Candida glabrata 65C
[26] = test system: Candida albicans ATCC 96112
[27] = test system: Cryptococcus neoformans ATCC 52817
[28] = test system: Streptococcus mutans GS-5
[29] = test system: Streptococcus gordonii ATCC 10558
[30] = test system: Saccharomyces cerevisiae S288C
[31] = test system: Streptococcus sanguinis ATCC 49295
[32] = test system: Streptococcus mutans UA159
[33] = test system: Candida glabrata ATCC 90030
Escherichia coli JM109 = test system: Escherichia coli JM109
[34] = test system: Escherichia coli BL21(DE3)
[35] = test system: Pseudomonas putida GPp104
Cupriavidus necator H16 = test system: Cupriavidus necator H16
[36] = test system: Fusarium oxysporum f. sp. lycopersici ATCC 201829
[37] = test system: Rhizopus stolonifer CECT 2344
[38] = test system: Aspergillus niger CECT 2694
[39] = test system: Penicillium expansum EPS 26

An MIC [1] of 7.42 µM (≈ 12.8 µg/mL), an MIC [2] of 14.8 µM (≈ 25.6 µg/mL) and an MIC (Vibrio alginolyticus) of 14.8 µM (≈ 25.6 µg/mL) were found for `CC[C@H](C)[C@H](NC(=O)[C@H](Cc1ccccc1)NC(=O)CNC(C)=O)C(=O)N[C@@H](Cc1ccccc1)C(=O)N[C@@H](Cc1cnc[nH]1)C(=O)N[C@H](C(=O)N[C@H](C(=O)N[C@@H](CCCCN)C(=O)NCC(=O)N[C@@H](CC(C)C)C(=O)N[C@@H](Cc1ccccc1)C(=O)N[C@@H](Cc1cnc[nH]1)C(=O)N[C@@H](C)C(=O)NCC(=O)N[C@@H](CCCCN)C(N)=O)[C@@H](C)CC)[C@@H](C)CC` [GFIFHIIKGLFHAGK] in this work. For the same compound, the MIC (Vibrio vulnificus 204) was no less than 59.3 µM, the MIC [3] was 3.71 µM (≈ 6.4 µg/mL) and the MIC (Streptococcus agalactiae) was 29.7 µM (≈ 51.2 µg/mL). It also gave an MIC [4] of 29.7 µM (≈ 51.2 µg/mL) and an MIC [5] of 14.8 µM (≈ 25.6 µg/mL).
An MIC [6] of 52 µM (≈ 86.2 µg/mL), an MIC [7] of no less than 56.1 µM and an MIC [8] of no less than 56.3 µM were found for `CC(C)[C@H](NC(=O)[C@H](Cc1cnc[nH]1)NC(=O)[C@H](C)NC(=O)[C@H](C)NC(=O)[C@H](CCCCN)NC(=O)[C@@H](N)CCCCN)C(=O)NCC(=O)N[C@@H](CCCCN)C(=O)N[C@@H](Cc1cnc[nH]1)C(=O)N[C@H](C(=O)NCC(=O)N[C@@H](CCCCN)C(=O)N[C@@H](C)C(=O)N[C@@H](C)C(=O)N[C@@H](CCCCN)C(=O)N[C@@H](CCCCN)C(=O)O)C(C)C` [KKAAHVGKHVGKAAKK] in this work. It also gave an MIC [9] of 47.2 µM (≈ 78.3 µg/mL).
An MIC [10] of 3.73 µM (≈ 10 µg/mL), an MIC [11] of 0.933 µM (≈ 2.5 µg/mL) and an MIC [12] of 3.73 µM (≈ 10 µg/mL) were found for `CC[C@H](C)[C@H](NC(=O)[C@H](CC(C)C)NC(=O)[C@H](CCCN=C(N)N)NC(=O)[C@H](CCCN=C(N)N)NC(=O)[C@@H](N)CCCCN)C(=O)N[C@@H](Cc1ccccc1)C(=O)N[C@@H](CCCN=C(N)N)C(=O)N[C@H](C(=O)N[C@@H](CC(C)C)C(=O)N[C@@H](CCCCN)C(=O)N[C@@H](CC(C)C)C(=O)N[C@@H](Cc1ccccc1)C(=O)N[C@@H](Cc1ccccc1)C(=O)N[C@@H](CCCN=C(N)N)C(=O)N[C@@H](Cc1ccccc1)C(=O)N[C@@H](CC(C)C)C(=O)N[C@H](C(=O)N[C@@H](CCCCN)C(=O)N[C@@H](CCCCN)C(=O)N[C@@H](CCCN=C(N)N)C(N)=O)C(C)C)[C@@H](C)CC` [KRRLIFRILKLFFRFLVKKR] in this work. The MIC [13] was 0.373 µM (≈ 1 µg/mL), the MIC [14] was 1.87 µM (≈ 5 µg/mL) and the MIC [15] was 3.73 µM (≈ 10 µg/mL).
For `CC[C@H](C)[C@H](NC(=O)[C@H](CCCN=C(N)N)NC(=O)[C@H](Cc1c[nH]c2ccccc12)NC(=O)[C@H](CCCN=C(N)N)NC(=O)[C@H](CCCN=C(N)N)NC(=O)[C@@H](N)CCCCN)C(=O)N[C@@H](Cc1c[nH]c2ccccc12)C(=O)N[C@@H](CC(C)C)C(=O)N[C@H](C(N)=O)C(C)C` [KRRWRIWLV], the MIC [16] was 4 µM (≈ 5.25 µg/mL), the MIC [6] was 13 µM and 6.09 µM and the MIC [17] was 8 µM (≈ 10.5 µg/mL). For the same compound, the MIC [18] was 5.66 µM (≈ 7.42 µg/mL), the MIC (Staphylococcus aureus) was 6.09 µM (≈ 7.99 µg/mL) and the MIC [19] was 6.09 µM (≈ 7.99 µg/mL). For the same compound, the MIC (Staphylococcus aureus MR) was 13 µM and 25.1 µM, the MIC [20] was 6.09 µM (≈ 7.99 µg/mL) and the MIC [9] was 25.1 µM (≈ 33 µg/mL). It also gave an MIC [21] of 3.05 µM (≈ 4 µg/mL) and an MIC [22] of 4 µM (≈ 5.25 µg/mL).
An MIC [23] of 0.45 µM (≈ 0.681 µg/mL) and an MIC [24] of 1.37 µM (≈ 2.07 µg/mL) were found for `CC(C)C[C@H](N)C(=O)N[C@H](C(=O)N[C@@H](Cc1ccc(O)cc1)C(=O)N[C@H]1CSSC[C@@H](C(=O)N[C@H](C(=O)N[C@H](C(=O)N[C@H](C(N)=O)C(C)C)[C@@H](C)O)C(C)C)NC(=O)[C@H](Cc2ccccc2)NC(=O)[C@H](CCCN=C(N)N)NC(=O)[C@H](CCCN=C(N)N)NC(=O)[C@H](CCCN=C(N)N)NC1=O)[C@@H](C)O` [LTYCRRRFCVTV] in this work.
An MIC [25] of 1.98 µM (≈ 3.13 µg/mL), an MIC (Candida glabrata 65C) of 3.96 µM (≈ 6.25 µg/mL) and an MIC [26] of 3.96 µM (≈ 6.25 µg/mL) were found for `CC(C)C[C@H](NC(=O)[C@H](CS)NC(=O)[C@H](CCCCN)NC(=O)[C@H](Cc1ccc(O)cc1)NC(=O)[C@H](CO)NC(=O)[C@H](CCCCN)NC(=O)[C@@H](N)CCCN=C(N)N)C(=O)N[C@@H](Cc1cnc[nH]1)C(=O)N[C@@H](CCCCN)C(=O)N[C@@H](CCCN=C(N)N)C(=O)N[C@@H](CS)C(=O)N[C@@H](CCCN=C(N)N)C(=O)O` [RKSYKCLHKRCR] in this work. For the same compound, the MIC [27] was 3.96 µM (≈ 6.25 µg/mL), the MIC [28] was no less than 37.2 µM and the MIC [29] was no less than 54.1 µM. For the same compound, the MIC [30] was 3.96 µM (≈ 6.25 µg/mL), the MIC [31] was no less than 74.4 µM and the MIC [32] was 30.4 µM (≈ 48 µg/mL). It also gave an MIC [33] of 15.8 µM (≈ 25 µg/mL).
An MIC (Escherichia coli JM109) of 2.5 µM (≈ 5.59 µg/mL), an MIC [34] of 0.313 µM (≈ 0.699 µg/mL) and an MIC [35] of 3.13 µM (≈ 6.99 µg/mL) were found for `CC[C@H](C)[C@H](NC(=O)[C@H](Cc1ccc(O)cc1)NC(=O)[C@@H](NC(=O)[C@@H]1CCCN1C(=O)[C@H](CCCN=C(N)N)NC(=O)[C@H](CCCN=C(N)N)NC(=O)[C@@H](NC(=O)[C@@H](N)CCCN=C(N)N)C(C)C)C(C)C)C(=O)N1CCC[C@H]1C(=O)N[C@@H](CCC(N)=O)C(=O)N1CCC[C@H]1C(=O)N[C@@H](CCCN=C(N)N)C(=O)N1CCC[C@H]1C(=O)N1CCC[C@H]1C(=O)N[C@@H](Cc1cnc[nH]1)C(=O)N1CCC[C@H]1C(=O)N[C@@H](CCCN=C(N)N)C(=O)N[C@@H](CC(C)C)C(=O)O` [RVRRPVYIPQPRPPHPRL] in this work. For the same compound, the MIC (Cupriavidus necator H16) was 10 µM (≈ 22.3 µg/mL).
An MIC [36] of 1.73 µM (≈ 2.5 µg/mL), an MIC [37] of no less than 35.4 µM and an MIC [38] of 22.4 µM (≈ 32.3 µg/mL) were found for `CC[C@H](C)[C@H](NC(=O)[C@H](CCCCN)NC(=O)[C@H](CCCCN)NC(=O)[C@H](Cc1ccccc1)NC(=O)[C@H](CC(C)C)NC(=O)[C@H](CCCCN)NC(=O)[C@@H](N)Cc1c[nH]c2ccccc12)C(=O)N[C@@H](CC(C)C)C(=O)N[C@@H](CCCCN)C(=O)N[C@@H](CCCCN)C(=O)N[C@@H](CC(C)C)C(N)=O` [WKLFKKILKKL] in this work. For the same compound, the MIC [39] was no less than 70.7 µM.

Reference: DBAASP
